In the NIST ThermoML archive (doi:10.1021/acs.jced.5b00592):
± gives the expanded uncertainty stated by the source.

settings: 288.15 K; 101.33 kPa; Liquid; Vibrating tube method

| SMILES | mass density |
| --- | --- |
| CCCCCCCCCCCCn1cc[n+](C)c1.O=S(=O)([N-]S(=O)(=O)C(F)(F)F)C(F)(F)F | 1238.73 ± 1.4 kg/m3 |
| CCCCCCCCn1cc[n+](C)c1.O=S(=O)([N-]S(=O)(=O)C(F)(F)F)C(F)(F)F | 1329.44 ± 0.54 kg/m3 |
| CCCC[n+]1ccn(C)c1.O=S(=O)([N-]S(=O)(=O)C(F)(F)F)C(F)(F)F | 1443.95 ± 4 kg/m3 |
| CCCC[n+]1ccccc1.O=S(=O)([N-]S(=O)(=O)C(F)(F)F)C(F)(F)F [1-butylpyridinium bis[(trifluoromethyl)sulfonyl]imide] | 1457.74 ± 1.9 kg/m3 |
| CCCCCCCCn1cc[n+](C)c1.O=S(=O)([O-])C(F)(F)F [1-octyl-3-methylimidazolium trifluoromethanesulfonate] | 1200.83 ± 0.44 kg/m3 |

same assay, conditions: 293.15 K; 101.33 kPa; Liquid; Vibrating tube method

| SMILES | mass density |
| --- | --- |
| CCCCCCCCCCCCn1cc[n+](C)c1.O=S(=O)([N-]S(=O)(=O)C(F)(F)F)C(F)(F)F | 1234.45 ± 1.4 kg/m3 |
| CCCCCCCCn1cc[n+](C)c1.O=S(=O)([N-]S(=O)(=O)C(F)(F)F)C(F)(F)F | 1324.99 ± 0.54 kg/m3 |
| CCCC[n+]1ccn(C)c1.O=S(=O)([N-]S(=O)(=O)C(F)(F)F)C(F)(F)F | 1439.13 ± 4 kg/m3 |
| CCCC[n+]1ccccc1.O=S(=O)([N-]S(=O)(=O)C(F)(F)F)C(F)(F)F [1-butylpyridinium bis[(trifluoromethyl)sulfonyl]imide] | 1452.97 ± 1.9 kg/m3 |
| CCCCCCCCn1cc[n+](C)c1.O=S(=O)([O-])C(F)(F)F [1-octyl-3-methylimidazolium trifluoromethanesulfonate] | 1197.12 ± 0.44 kg/m3 |
| CCC(=O)[O-].C[NH2+]CCO [2-hydroxy-N-methylethanaminium propionate] | 1068.13 ± 0.99 kg/m3 |
| CC(=O)[O-].C[NH2+]CCO [N-methyl-2-hydroxyethylammonium acetate] | 1099.6 ± 1.1 kg/m3 |
| CCCC(=O)[O-].C[NH2+]CCO [N-methyl-2-hydroxyethylammonium butanoate] | 1038.03 ± 0.93 kg/m3 |

same assay, conditions: 298.15 K; 101.33 kPa; Liquid; Vibrating tube method

| SMILES | mass density |
| --- | --- |
| CCCCCCCCCCCCn1cc[n+](C)c1.O=S(=O)([N-]S(=O)(=O)C(F)(F)F)C(F)(F)F | 1230.2 ± 1.4 kg/m3 |
| CCCCCCCCn1cc[n+](C)c1.O=S(=O)([N-]S(=O)(=O)C(F)(F)F)C(F)(F)F | 1320.54 ± 0.53 kg/m3 |
| CCCC[n+]1ccn(C)c1.O=S(=O)([N-]S(=O)(=O)C(F)(F)F)C(F)(F)F | 1434.32 ± 4 kg/m3 |
| CCCC[n+]1ccccc1.O=S(=O)([N-]S(=O)(=O)C(F)(F)F)C(F)(F)F [1-butylpyridinium bis[(trifluoromethyl)sulfonyl]imide] | 1448.23 ± 1.9 kg/m3 |
| CCCCCCCCn1cc[n+](C)c1.O=S(=O)([O-])C(F)(F)F [1-octyl-3-methylimidazolium trifluoromethanesulfonate] | 1193.39 ± 0.43 kg/m3 |

same assay, conditions: 303.15 K; 101.33 kPa; Liquid; Vibrating tube method

| SMILES | mass density |
| --- | --- |
| CCCCCCCCCCCCn1cc[n+](C)c1.O=S(=O)([N-]S(=O)(=O)C(F)(F)F)C(F)(F)F | 1225.93 ± 1.3 kg/m3 |
| CCCCCCCCn1cc[n+](C)c1.O=S(=O)([N-]S(=O)(=O)C(F)(F)F)C(F)(F)F | 1316.08 ± 0.53 kg/m3 |
| CCCC[n+]1ccn(C)c1.O=S(=O)([N-]S(=O)(=O)C(F)(F)F)C(F)(F)F | 1429.51 ± 4 kg/m3 |
| CCCC[n+]1ccccc1.O=S(=O)([N-]S(=O)(=O)C(F)(F)F)C(F)(F)F [1-butylpyridinium bis[(trifluoromethyl)sulfonyl]imide] | 1443.6 ± 1.9 kg/m3 |
| CCCCCCCCn1cc[n+](C)c1.O=S(=O)([O-])C(F)(F)F [1-octyl-3-methylimidazolium trifluoromethanesulfonate] | 1189.64 ± 0.43 kg/m3 |
| CCC(=O)[O-].C[NH2+]CCO [2-hydroxy-N-methylethanaminium propionate] | 1061.16 ± 0.97 kg/m3 |
| CC(=O)[O-].C[NH2+]CCO [N-methyl-2-hydroxyethylammonium acetate] | 1093 ± 1 kg/m3 |
| CCCC(=O)[O-].C[NH2+]CCO [N-methyl-2-hydroxyethylammonium butanoate] | 1031.04 ± 0.91 kg/m3 |

same assay, conditions: 308.15 K; 101.33 kPa; Liquid; Vibrating tube method

| SMILES | mass density |
| --- | --- |
| CCCCCCCCCCCCn1cc[n+](C)c1.O=S(=O)([N-]S(=O)(=O)C(F)(F)F)C(F)(F)F | 1221.7 ± 1.3 kg/m3 |
| CCCCCCCCn1cc[n+](C)c1.O=S(=O)([N-]S(=O)(=O)C(F)(F)F)C(F)(F)F | 1311.64 ± 0.53 kg/m3 |
| CCCC[n+]1ccn(C)c1.O=S(=O)([N-]S(=O)(=O)C(F)(F)F)C(F)(F)F | 1424.73 ± 4 kg/m3 |
| CCCC[n+]1ccccc1.O=S(=O)([N-]S(=O)(=O)C(F)(F)F)C(F)(F)F [1-butylpyridinium bis[(trifluoromethyl)sulfonyl]imide] | 1438.91 ± 1.9 kg/m3 |
| CCCCCCCCn1cc[n+](C)c1.O=S(=O)([O-])C(F)(F)F [1-octyl-3-methylimidazolium trifluoromethanesulfonate] | 1185.9 ± 0.43 kg/m3 |

same assay, conditions: 313.15 K; 101.33 kPa; Liquid; Vibrating tube method

| SMILES | mass density |
| --- | --- |
| CCCCCCCCCCCCn1cc[n+](C)c1.O=S(=O)([N-]S(=O)(=O)C(F)(F)F)C(F)(F)F | 1217.48 ± 1.3 kg/m3 |
| CCCCCCCCn1cc[n+](C)c1.O=S(=O)([N-]S(=O)(=O)C(F)(F)F)C(F)(F)F | 1307.23 ± 0.52 kg/m3 |
| CCCC[n+]1ccn(C)c1.O=S(=O)([N-]S(=O)(=O)C(F)(F)F)C(F)(F)F | 1419.98 ± 4 kg/m3 |
| CCCC[n+]1ccccc1.O=S(=O)([N-]S(=O)(=O)C(F)(F)F)C(F)(F)F [1-butylpyridinium bis[(trifluoromethyl)sulfonyl]imide] | 1434.25 ± 1.9 kg/m3 |
| CCCCCCCCn1cc[n+](C)c1.O=S(=O)([O-])C(F)(F)F [1-octyl-3-methylimidazolium trifluoromethanesulfonate] | 1182.17 ± 0.43 kg/m3 |
| CCC(=O)[O-].C[NH2+]CCO [2-hydroxy-N-methylethanaminium propionate] | 1054.19 ± 0.96 kg/m3 |
| CC(=O)[O-].C[NH2+]CCO [N-methyl-2-hydroxyethylammonium acetate] | 1086.4 ± 1 kg/m3 |
| CCCC(=O)[O-].C[NH2+]CCO [N-methyl-2-hydroxyethylammonium butanoate] | 1024.03 ± 0.9 kg/m3 |

same assay, conditions: 318.15 K; 101.33 kPa; Liquid; Vibrating tube method

| SMILES | mass density |
| --- | --- |
| CCCCCCCCCCCCn1cc[n+](C)c1.O=S(=O)([N-]S(=O)(=O)C(F)(F)F)C(F)(F)F | 1213.28 ± 1.3 kg/m3 |
| CCCCCCCCn1cc[n+](C)c1.O=S(=O)([N-]S(=O)(=O)C(F)(F)F)C(F)(F)F | 1302.82 ± 0.52 kg/m3 |
| CCCC[n+]1ccn(C)c1.O=S(=O)([N-]S(=O)(=O)C(F)(F)F)C(F)(F)F | 1415.23 ± 4 kg/m3 |
| CCCC[n+]1ccccc1.O=S(=O)([N-]S(=O)(=O)C(F)(F)F)C(F)(F)F [1-butylpyridinium bis[(trifluoromethyl)sulfonyl]imide] | 1429.62 ± 1.9 kg/m3 |
| CCCCCCCCn1cc[n+](C)c1.O=S(=O)([O-])C(F)(F)F [1-octyl-3-methylimidazolium trifluoromethanesulfonate] | 1178.44 ± 0.42 kg/m3 |

same assay, conditions: 323.15 K; 101.33 kPa; Liquid; Vibrating tube method

| SMILES | mass density |
| --- | --- |
| CCCCCCCCCCCCn1cc[n+](C)c1.O=S(=O)([N-]S(=O)(=O)C(F)(F)F)C(F)(F)F | 1209.09 ± 1.3 kg/m3 |
